Data published in patent publication US12275731B2, “Azaindole inhibitors of wild-type and mutant forms of LRRK2” (DANA-FARBER CANCER INSTITUTE, INC., priority 2018, dated 2025).

Experiments:
Assay in all cases: KinomeScan profiling
Type in all cases: binding
BTK = BTK (Homo sapiens, UniProt Q06187); conditions: read-out: % control
Procedure: (§1) The kinase selectivity of inventive compounds 77, 96 and 101 was evaluated by KinomeScan®. KinomeScan® analysis was performed against a near comprehensive panel of 468 kinases. The control percentage (% control) for inventive compounds at 1 μM in DMSO was determined by Equation 1: % control=(inventive compound−positive control)/(negative control−positive control)×100%, Equation 1
(§2) wherein the positive control is a compound with a % control value of 0% relative light units (RLU), and the negative control (i.e., DMSO) has % control value of 100% RLU. The enzyme selectivity in the present invention is defined as follows: inventive compounds are considered active for an enzyme when the observed % control is less than 35% (<35%).

YANK1 = YANK1 (Homo sapiens, UniProt Q8WU08); conditions: YANK1, 1 μM; read-out: % control
Procedure: as §1, §2

CAMK4 = biological target: T1, CAMK4 (Homo sapiens, UniProt Q16566); conditions: CAMK4, 1 μM; read-out: % control
T1 sequence (Q16566 1-473): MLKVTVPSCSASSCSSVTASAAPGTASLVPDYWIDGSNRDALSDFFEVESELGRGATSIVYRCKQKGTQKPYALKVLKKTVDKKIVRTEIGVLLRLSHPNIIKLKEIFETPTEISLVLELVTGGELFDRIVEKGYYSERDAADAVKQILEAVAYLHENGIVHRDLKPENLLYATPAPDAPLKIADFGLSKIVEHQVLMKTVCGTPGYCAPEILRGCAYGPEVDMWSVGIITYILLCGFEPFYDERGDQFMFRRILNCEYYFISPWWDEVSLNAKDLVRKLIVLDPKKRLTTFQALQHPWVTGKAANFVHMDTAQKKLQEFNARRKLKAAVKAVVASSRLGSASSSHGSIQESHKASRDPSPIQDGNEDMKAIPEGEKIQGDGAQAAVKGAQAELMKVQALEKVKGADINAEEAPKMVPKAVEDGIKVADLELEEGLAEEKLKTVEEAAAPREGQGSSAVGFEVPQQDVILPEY
Procedure: as §1, §2

CSF1R-autoinhibited = biological target: T2, CSF1R-autoinhibited (Homo sapiens, UniProt P07333); conditions: read-out: % control
T2 sequence (P07333 539-972 limits assumed): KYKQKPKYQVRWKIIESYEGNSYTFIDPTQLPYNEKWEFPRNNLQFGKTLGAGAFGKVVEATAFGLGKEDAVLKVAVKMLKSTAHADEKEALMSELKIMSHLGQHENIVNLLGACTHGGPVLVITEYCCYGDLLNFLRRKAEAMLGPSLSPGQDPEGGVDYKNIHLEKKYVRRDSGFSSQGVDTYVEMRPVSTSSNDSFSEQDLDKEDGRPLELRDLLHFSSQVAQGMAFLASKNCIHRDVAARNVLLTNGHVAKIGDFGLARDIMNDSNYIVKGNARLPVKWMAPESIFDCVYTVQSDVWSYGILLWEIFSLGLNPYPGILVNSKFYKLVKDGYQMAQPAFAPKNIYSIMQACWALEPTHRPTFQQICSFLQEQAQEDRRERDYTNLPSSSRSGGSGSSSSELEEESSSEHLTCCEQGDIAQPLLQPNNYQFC
Procedure: as §1, §2

LYN = LYN (Homo sapiens, UniProt P07948); conditions: read-out: % control
Procedure: as §1, §2

SIK2 = biological target: T3, SIK2 (Homo sapiens, UniProt Q9H0K1); conditions: SIK2, 1 μM; read-out: % control
T3 construct: purchased KinomeScan® (panel service)
Procedure: as §1, §2

DAPK3 = DAPK3 (Homo sapiens, UniProt O43293); conditions: DAPK3, 1 μM; read-out: % control
Procedure: as §1, §2

PAK6 = PAK6 (Homo sapiens, UniProt Q9NQU5); conditions: PAK6, 1 μM; read-out: % control
Procedure: as §1, §2

MKK7 = biological target: T4, MKK7 (Homo sapiens, UniProt O14733); conditions: MKK7, 1 μM; read-out: % control
T4 sequence (O14733 1-419): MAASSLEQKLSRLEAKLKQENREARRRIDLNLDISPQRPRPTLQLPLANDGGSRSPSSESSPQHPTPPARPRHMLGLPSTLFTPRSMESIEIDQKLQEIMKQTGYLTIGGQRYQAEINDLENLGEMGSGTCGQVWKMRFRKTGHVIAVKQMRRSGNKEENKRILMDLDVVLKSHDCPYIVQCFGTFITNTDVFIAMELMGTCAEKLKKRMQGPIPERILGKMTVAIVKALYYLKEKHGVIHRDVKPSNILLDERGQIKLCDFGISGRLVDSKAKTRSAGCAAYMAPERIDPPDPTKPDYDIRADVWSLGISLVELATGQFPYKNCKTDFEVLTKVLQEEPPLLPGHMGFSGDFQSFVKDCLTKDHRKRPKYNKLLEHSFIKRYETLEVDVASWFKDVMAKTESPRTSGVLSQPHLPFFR
Procedure: as §1, §2

GRK4 = GRK4 (Homo sapiens, UniProt P32298); conditions: GRK4, 1 μM; read-out: % control
Procedure: as §1, §2

AURKA = biological target: T5, AURKA (Homo sapiens, UniProt O14965); conditions: read-out: % control
T5 construct: purchased KinomeScan®
T5 sequence (O14965 1-403): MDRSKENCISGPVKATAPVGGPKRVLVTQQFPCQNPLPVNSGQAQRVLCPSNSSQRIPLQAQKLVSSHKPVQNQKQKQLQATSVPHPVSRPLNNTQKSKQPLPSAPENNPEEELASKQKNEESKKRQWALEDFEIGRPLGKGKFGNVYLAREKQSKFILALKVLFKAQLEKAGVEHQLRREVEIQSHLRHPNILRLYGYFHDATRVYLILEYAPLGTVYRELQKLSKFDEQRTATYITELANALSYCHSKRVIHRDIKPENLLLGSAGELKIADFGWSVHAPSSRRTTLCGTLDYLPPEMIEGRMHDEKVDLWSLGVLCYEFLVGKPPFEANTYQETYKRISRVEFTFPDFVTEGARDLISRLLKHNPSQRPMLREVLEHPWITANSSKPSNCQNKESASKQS
Procedure: as §1, §2

Chain of LYN (P07948 whole entry): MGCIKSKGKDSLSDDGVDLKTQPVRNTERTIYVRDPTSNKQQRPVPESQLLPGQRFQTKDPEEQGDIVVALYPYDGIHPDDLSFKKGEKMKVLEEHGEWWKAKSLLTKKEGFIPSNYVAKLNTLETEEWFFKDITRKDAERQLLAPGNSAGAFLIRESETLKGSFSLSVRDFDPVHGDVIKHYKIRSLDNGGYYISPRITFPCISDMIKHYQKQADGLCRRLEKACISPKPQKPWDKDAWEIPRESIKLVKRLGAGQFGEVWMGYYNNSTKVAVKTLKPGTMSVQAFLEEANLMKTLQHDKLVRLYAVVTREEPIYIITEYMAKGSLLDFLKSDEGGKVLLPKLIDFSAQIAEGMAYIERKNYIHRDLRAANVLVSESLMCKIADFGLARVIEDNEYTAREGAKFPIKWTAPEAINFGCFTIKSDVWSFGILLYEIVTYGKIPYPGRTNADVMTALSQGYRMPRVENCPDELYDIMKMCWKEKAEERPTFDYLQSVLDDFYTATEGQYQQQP
T3 sequence (Q9H0K1 whole entry): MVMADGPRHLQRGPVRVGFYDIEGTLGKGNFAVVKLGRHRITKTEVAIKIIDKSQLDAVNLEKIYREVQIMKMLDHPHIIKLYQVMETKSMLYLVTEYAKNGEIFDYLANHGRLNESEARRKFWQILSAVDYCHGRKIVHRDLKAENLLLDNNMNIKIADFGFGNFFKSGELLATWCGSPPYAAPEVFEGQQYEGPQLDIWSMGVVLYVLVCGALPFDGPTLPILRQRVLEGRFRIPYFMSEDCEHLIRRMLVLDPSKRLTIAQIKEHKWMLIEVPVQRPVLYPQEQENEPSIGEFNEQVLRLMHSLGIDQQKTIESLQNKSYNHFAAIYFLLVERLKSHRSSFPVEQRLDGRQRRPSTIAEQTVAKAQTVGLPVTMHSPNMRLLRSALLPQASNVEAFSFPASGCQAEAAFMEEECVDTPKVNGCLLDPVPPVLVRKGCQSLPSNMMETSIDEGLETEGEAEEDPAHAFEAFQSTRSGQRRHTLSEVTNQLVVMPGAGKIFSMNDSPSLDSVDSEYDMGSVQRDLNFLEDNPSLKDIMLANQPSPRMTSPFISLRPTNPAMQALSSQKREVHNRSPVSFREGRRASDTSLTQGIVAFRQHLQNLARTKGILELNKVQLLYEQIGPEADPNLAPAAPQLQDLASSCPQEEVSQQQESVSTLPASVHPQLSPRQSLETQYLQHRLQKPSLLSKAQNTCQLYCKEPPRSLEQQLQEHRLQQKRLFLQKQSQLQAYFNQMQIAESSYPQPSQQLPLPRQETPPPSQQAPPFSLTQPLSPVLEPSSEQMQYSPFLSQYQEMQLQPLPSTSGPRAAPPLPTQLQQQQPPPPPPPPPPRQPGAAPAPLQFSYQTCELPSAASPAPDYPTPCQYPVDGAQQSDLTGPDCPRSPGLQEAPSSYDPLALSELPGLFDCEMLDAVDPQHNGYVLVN
Chain of GRK4 (P32298 whole entry): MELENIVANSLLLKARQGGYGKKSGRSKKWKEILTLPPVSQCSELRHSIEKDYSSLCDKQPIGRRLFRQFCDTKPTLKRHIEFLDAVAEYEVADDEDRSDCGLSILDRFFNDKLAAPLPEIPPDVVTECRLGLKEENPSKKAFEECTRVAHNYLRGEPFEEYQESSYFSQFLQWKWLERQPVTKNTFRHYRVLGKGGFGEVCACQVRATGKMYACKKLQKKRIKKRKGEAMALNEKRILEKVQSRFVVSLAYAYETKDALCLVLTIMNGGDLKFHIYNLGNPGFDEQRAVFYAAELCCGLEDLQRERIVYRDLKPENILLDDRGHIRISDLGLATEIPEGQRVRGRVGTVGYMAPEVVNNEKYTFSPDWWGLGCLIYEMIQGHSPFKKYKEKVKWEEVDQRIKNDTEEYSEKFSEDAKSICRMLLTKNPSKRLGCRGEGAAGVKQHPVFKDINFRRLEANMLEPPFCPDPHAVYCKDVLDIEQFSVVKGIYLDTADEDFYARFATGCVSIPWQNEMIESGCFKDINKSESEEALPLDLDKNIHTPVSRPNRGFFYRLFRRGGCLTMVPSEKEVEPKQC
Chain of DAPK3 (O43293 whole entry): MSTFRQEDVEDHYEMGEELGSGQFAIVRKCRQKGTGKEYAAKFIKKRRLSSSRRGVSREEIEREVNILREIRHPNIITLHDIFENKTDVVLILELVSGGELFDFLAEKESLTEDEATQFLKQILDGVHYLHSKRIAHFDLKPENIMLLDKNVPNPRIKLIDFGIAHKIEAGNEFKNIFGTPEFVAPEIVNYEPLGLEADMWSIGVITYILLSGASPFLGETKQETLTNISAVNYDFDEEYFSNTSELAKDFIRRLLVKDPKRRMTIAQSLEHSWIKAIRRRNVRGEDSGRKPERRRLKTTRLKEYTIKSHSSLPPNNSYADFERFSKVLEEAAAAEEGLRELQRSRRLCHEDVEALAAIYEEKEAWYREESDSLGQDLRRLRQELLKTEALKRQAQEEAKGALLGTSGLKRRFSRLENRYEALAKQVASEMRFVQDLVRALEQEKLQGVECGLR
Chain of PAK6 (Q9NQU5 whole entry): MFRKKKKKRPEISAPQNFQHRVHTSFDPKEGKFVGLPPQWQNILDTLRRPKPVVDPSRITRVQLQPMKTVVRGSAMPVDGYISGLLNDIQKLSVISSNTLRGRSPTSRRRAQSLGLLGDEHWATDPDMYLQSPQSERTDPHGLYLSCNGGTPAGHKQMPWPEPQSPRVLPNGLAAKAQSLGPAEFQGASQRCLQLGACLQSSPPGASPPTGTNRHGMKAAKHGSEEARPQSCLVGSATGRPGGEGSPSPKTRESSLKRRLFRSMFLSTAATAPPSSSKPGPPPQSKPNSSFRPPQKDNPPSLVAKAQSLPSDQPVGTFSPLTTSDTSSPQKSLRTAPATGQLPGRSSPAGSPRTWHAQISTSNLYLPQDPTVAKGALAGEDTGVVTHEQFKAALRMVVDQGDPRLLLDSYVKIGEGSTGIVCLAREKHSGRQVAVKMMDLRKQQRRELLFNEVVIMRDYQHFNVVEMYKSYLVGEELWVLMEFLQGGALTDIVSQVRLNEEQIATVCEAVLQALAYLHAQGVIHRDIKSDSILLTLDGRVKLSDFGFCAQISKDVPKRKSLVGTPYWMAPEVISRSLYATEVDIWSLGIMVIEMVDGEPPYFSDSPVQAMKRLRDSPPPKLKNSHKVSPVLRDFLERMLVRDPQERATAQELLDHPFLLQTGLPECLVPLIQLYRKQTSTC
Chain of YANK1 (Q8WU08 whole entry): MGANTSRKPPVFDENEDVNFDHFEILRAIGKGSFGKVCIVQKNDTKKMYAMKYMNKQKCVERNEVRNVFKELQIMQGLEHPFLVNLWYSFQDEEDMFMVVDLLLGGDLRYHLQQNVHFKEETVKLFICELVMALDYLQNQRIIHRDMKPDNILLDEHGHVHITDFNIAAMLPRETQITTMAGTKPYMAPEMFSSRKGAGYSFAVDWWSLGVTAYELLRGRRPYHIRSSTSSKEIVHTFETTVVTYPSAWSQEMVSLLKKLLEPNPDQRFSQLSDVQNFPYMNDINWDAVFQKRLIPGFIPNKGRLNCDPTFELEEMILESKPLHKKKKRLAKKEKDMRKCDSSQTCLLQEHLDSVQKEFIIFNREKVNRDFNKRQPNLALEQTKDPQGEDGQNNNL
Chain of BTK (Q06187 whole entry): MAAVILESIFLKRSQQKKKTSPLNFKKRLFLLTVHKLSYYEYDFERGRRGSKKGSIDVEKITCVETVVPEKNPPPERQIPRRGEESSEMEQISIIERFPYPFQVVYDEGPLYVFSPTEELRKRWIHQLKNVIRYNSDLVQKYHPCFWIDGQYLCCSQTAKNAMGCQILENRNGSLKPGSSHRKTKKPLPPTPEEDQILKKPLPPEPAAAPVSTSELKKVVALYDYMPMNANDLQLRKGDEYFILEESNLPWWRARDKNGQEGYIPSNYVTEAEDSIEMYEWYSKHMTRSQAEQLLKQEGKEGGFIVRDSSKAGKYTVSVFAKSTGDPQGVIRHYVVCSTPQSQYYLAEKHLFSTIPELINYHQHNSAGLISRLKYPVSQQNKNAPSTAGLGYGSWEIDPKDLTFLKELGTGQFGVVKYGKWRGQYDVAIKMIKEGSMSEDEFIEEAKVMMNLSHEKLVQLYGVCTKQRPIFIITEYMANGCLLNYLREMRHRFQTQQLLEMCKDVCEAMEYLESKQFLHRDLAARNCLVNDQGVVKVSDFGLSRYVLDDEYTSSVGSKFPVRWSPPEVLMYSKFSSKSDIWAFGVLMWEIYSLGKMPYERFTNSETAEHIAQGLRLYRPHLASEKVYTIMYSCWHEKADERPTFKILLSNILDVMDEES

Row | SMILES | remaining binding at 1 µM (BTK) [%] | remaining binding at 1 µM (YANK1) [%] | remaining binding at 1 µM (CAMK4) [%] | remaining binding at 1 µM (CSF1R-autoinhibited) [%] | remaining binding at 1 µM (LYN) [%] | remaining binding at 1 µM (SIK2) [%] | remaining binding at 1 µM (DAPK3) [%] | remaining binding at 1 µM (PAK6) [%] | remaining binding at 1 µM (MKK7) [%] | remaining binding at 1 µM (GRK4) [%] | remaining binding at 1 µM (AURKA) [%]
1 | CNc1c(-c2cnn([C@H]3CCN(C(C)=O)C[C@@H]3F)c2)cnc2[nH]cc(Cl)c12 [Compound 77, 1-((3S,4S)-4-(4-(3-chloro-4-(methylamino)-1H-pyrrolo[2,3-b]pyridin-5-yl)-1H-pyrazol-1-yl)-3-fluoropiperidin-1-yl)ethan-1-one] | 68 | 100 | 100 | 30 | 99 | 100 | 79 | 99 | 67 | 21 | 35
2 | CNc1c(-c2ccc(C(=O)N3CCC(N4CCOCC4)CC3)cc2)cnc2[nH]cc(Cl)c12 [Compound 96, (4-(3-chloro-4-(methylamino)-1H-pyrrolo[2,3-b]pyridin-5-yl)phenyl)(4-morpholinopiperidin-1-yl)methanone] | 78 | 100 | 100 | 49 | 100 | 85 | 96 | 100 | 79 | 28 | 36
3 | O=C(c1ccc(-c2cnc3[nH]cc(Cl)c3c2NC2CCCC2)cc1)N1CCC(N2CCOCC2)CC1 [Compound 101, (4-(3-chloro-4-(cyclopentylamino)-1H-pyrrolo[2,3-b]pyridin-5-yl)phenyl)(4-morpholinopiperidin-1-yl)methanone] | 100 | 100 | 87 | 3.2 | 100 | 84 | 88 | 99 | 100 | 14 | 82
